Test results as given in patent US10047050B2, “3,4-di-substituted pyridine compound, methods of using and compositions comprising the same” (ARDEA BIOSCIENCES, INC., priority 2011, dated 2018).
“And” between values parts separate entries of the source, which are not always exact repeats. Identical values can stand only once.

Test system: serum uric acid
Experiment: Single-dose Phase I clinical trial, serum uric acid (sUA) 0-72 hours post-dose
Type: in vivo, human
Conditions: for % sUA change (from baseline) / % sUA reduction (from baseline): individual subjects 3-8; for % sUA change (from baseline), Mean (3-8) / Absolute sUA concentration, Mean (3-8) / % sUA reduction (from baseline), Mean (3-8): mean of subjects 3-8
Protocol: A Phase 1, Randomized, Double-Blind, Placebo-Controlled Study to Evaluate Safety, Tolerability, Pharmacokinetics and Preliminary Food Effect of Single Doses of a URAT1 Inhibitor, in Healthy Adult Male Volunteers.
To assess safety, tolerability, pharmacokinetics and uricosuric effects after oral administration as single doses of a tablet formulation and the effect of food on bioavailability.
Subjects receive a single, oral dose of active or placebo, at the following doses:
Group 4: 20 mg (fasted) [sentinel dosing];
48 subjects in 6 dose groups, 8 subjects/group, are randomized 3:1 to receive active (6/group) or placebo (2/group). All study procedures are the same regardless of whether subject receives active or placebo. The total duration of subject participation, including screening period, is ˜2-4 weeks, and the total volume of blood collected from each subject during the entire study <500 mL, (less than typically collected during a volunteer blood donation).
5 mg and 20 mg, active and placebo, tablets packaged in 35 count HDPE bottles, stored at controlled room temperature (15-30° C.). Placebo tablets are designed to match the active tablets—identical size, form, taste, and color, and containing the same excipients. 2 mg was dosed as an oral solution.
Subjects dosed on the morning of Day 1 with ˜240 mL of room temp water.
Fasted: subjects are dosed after overnight fast >10 hours and remain fasted until >4 hours post-dose.
Fed: subjects fast overnight for >10 hours, then are dosed 30 mins after completing standard moderate fat breakfast (no high fructose corn syrup).
Serum samples are collected at:
PD samples are frozen (−20° C.) and stored; all samples from a given subject assayed in a single analytical run.

[1] = Group 1, 2 mg single oral dose, fasted, 0 h (baseline)
[2] = Group 1, 2 mg single oral dose, fasted, 6 h post-dose
[3] = Group 1, 2 mg single oral dose, fasted, 12 h post-dose
[4] = Group 1, 2 mg single oral dose, fasted, 24 h post-dose
[5] = Group 1, 2 mg single oral dose, fasted, 30 h post-dose
[6] = Group 1, 2 mg single oral dose, fasted, 36 h post-dose
[7] = Group 1, 2 mg single oral dose, fasted, 48 h post-dose
[8] = Group 1, 2 mg single oral dose, fasted, 54 h post-dose
[9] = Group 1, 2 mg single oral dose, fasted, 60 h post-dose
[10] = Group 1, 2 mg single oral dose, fasted, 72 h post-dose
[11] = Group 2, 5 mg single oral dose, fasted, 0 h (baseline)
[12] = Group 2, 5 mg single oral dose, fasted, 6 h post-dose
[13] = Group 2, 5 mg single oral dose, fasted, 12 h post-dose
[14] = Group 2, 5 mg single oral dose, fasted, 24 h post-dose
[15] = Group 2, 5 mg single oral dose, fasted, 30 h post-dose
[16] = Group 2, 5 mg single oral dose, fasted, 36 h post-dose
[17] = Group 2, 5 mg single oral dose, fasted, 48 h post-dose
[18] = Group 2, 5 mg single oral dose, fasted, 54 h post-dose
[19] = Group 2, 5 mg single oral dose, fasted, 60 h post-dose
[20] = Group 2, 5 mg single oral dose, fasted, 72 h post-dose
[21] = Group 3, 5 mg single oral dose, fed, 0 h (baseline)
[22] = Group 3, 5 mg single oral dose, fed, 6 h post-dose
[23] = Group 3, 5 mg single oral dose, fed, 12 h post-dose
[24] = Group 3, 5 mg single oral dose, fed, 24 h post-dose
[25] = Group 3, 5 mg single oral dose, fed, 30 h post-dose
[26] = Group 3, 5 mg single oral dose, fed, 36 h post-dose
[27] = Group 3, 5 mg single oral dose, fed, 48 h post-dose

## CC(C)(Sc1ccncc1-c1ccc(C#N)c2ccccc12)C(=O)O [2-((3-(4-cyanonaphthalen-1-yl)pyridin-4-yl)thio)-2-methylpropanoic acid]
[1]
  % sUA change (from baseline): 0%
  % sUA change (from baseline), Mean (3-8): 0%
  Absolute sUA concentration, Mean (3-8): 6.5 mg/dL
[2]
  % sUA change (from baseline): −30.4% and −47.5% and −35.5% and −37.8% and −38.2% and −33.3%
  % sUA change (from baseline), Mean (3-8): −10.2%
  Absolute sUA concentration, Mean (3-8): 5.8 mg/dL
[3]
  % sUA change (from baseline): −44.6% (2×) and −52.5% and −48.4% and −43.4% and −42.3%
  % sUA change (from baseline), Mean (3-8): −15.6%
  Absolute sUA concentration, Mean (3-8): 5.5 mg/dL
[4]
  % sUA change (from baseline): −41.1% and −44.1% and −43.5% and −40.5% and −43.4% and −46.2%
  % sUA change (from baseline), Mean (3-8): −8.1%
  Absolute sUA concentration, Mean (3-8): 6.0 mg/dL
[5]
  % sUA change (from baseline): −46.4% and −52.5% and −43.5% and −44.6% and −44.7% and −52.6%
  % sUA change (from baseline), Mean (3-8): −13.5%
  Absolute sUA concentration, Mean (3-8): 5.6 mg/dL
[6]
  % sUA change (from baseline): −48.2% and −52.5% and −45.2% and −45.9% and −46.1% and −52.6%
  % sUA change (from baseline), Mean (3-8): −18.8%
  Absolute sUA concentration, Mean (3-8): 5.3 mg/dL
[7]
  % sUA change (from baseline): −32.1% and −42.4% and −38.7% and −36.5% and −35.5% and −48.7%
  % sUA change (from baseline), Mean (3-8): −13.3%
  Absolute sUA concentration, Mean (3-8): 5.6 mg/dL
[8]
  % sUA change (from baseline): −33.9% and −45.8% and −37.1% and −27% and −32.9% and −48.7%
  % sUA change (from baseline), Mean (3-8): −19.3%
  Absolute sUA concentration, Mean (3-8): 5.3 mg/dL
[9]
  % sUA change (from baseline): −35.7% and −45.8% and −35.5% and −29.7% and −32.9% and −46.2%
  % sUA change (from baseline), Mean (3-8): −21.3%
  Absolute sUA concentration, Mean (3-8): 5.1 mg/dL
[10]
  % sUA change (from baseline): −23.2% and −30.5% and −16.1% and −14.9% and −15.8% and −28.2%
  % sUA change (from baseline), Mean (3-8): −15.5%
  Absolute sUA concentration, Mean (3-8): 5.5 mg/dL
[11]
  % sUA reduction (from baseline): 0%
  % sUA reduction (from baseline), Mean (3-8): 0%
  Absolute sUA concentration, Mean (3-8): 6.5 mg/dL
[12]
  % sUA reduction (from baseline): −24.3% and −13.9% and −14.3% and −13.1% and −27.9% and −22.0%
  % sUA reduction (from baseline), Mean (3-8): −19.3%
  Absolute sUA concentration, Mean (3-8): 5.3 mg/dL
[13]
  % sUA reduction (from baseline): −36.5% and −16.7% and −19.0% and −13.1% and −37.7% and −32.2%
  % sUA reduction (from baseline), Mean (3-8): −25.9%
  Absolute sUA concentration, Mean (3-8): 4.8 mg/dL
[14]
  % sUA reduction (from baseline): −25.7% and −11.1% (2×) and 0.0% and −26.2% and −16.9%
  % sUA reduction (from baseline), Mean (3-8): −15.2%
  Absolute sUA concentration, Mean (3-8): 5.5 mg/dL
[15]
  % sUA reduction (from baseline): −29.7% and −16.7% and −17.5% and −8.2% and −36.1% and −28.8%
  % sUA reduction (from baseline), Mean (3-8): −22.8%
  Absolute sUA concentration, Mean (3-8): 5.0 mg/dL
[16]
  % sUA reduction (from baseline): −32.4% and −23.6% and −14.3% and −14.8% and −41.0% and −32.2%
  % sUA reduction (from baseline), Mean (3-8): −26.4%
  Absolute sUA concentration, Mean (3-8): 4.8 mg/dL
[17]
  % sUA reduction (from baseline): −27.0% and −11.1% and −9.5% and −11.5% and −31.1% and −20.3%
  % sUA reduction (from baseline), Mean (3-8): −18.4%
  Absolute sUA concentration, Mean (3-8): 5.3 mg/dL
[18]
  % sUA reduction (from baseline): −31.1% and −18.1% and −15.9% and −16.4% and −32.8% and −28.8%
  % sUA reduction (from baseline), Mean (3-8): −23.9%
  Absolute sUA concentration, Mean (3-8): 5.0 mg/dL
[19]
  % sUA reduction (from baseline): −28.4% and −22.2% and −20.6% and −21.3% and −32.8% and −28.8%
  % sUA reduction (from baseline), Mean (3-8): −25.7%
  Absolute sUA concentration, Mean (3-8): 4.8 mg/dL
[20]
  % sUA reduction (from baseline): −21.6% and −15.3% and −12.7% and −13.1% and −26.2% and −23.7%
  % sUA reduction (from baseline), Mean (3-8): −18.8%
  Absolute sUA concentration, Mean (3-8): 5.3 mg/dL
[21]
  % sUA reduction (from baseline): 0%
  % sUA reduction (from baseline), Mean (3-8): 0%
  Absolute sUA concentration, Mean (3-8): 6.0 mg/dL
[22]
  % sUA reduction (from baseline): −36.2% and −31.8% and −25.0% and −22.8% and −30.0%
  % sUA reduction (from baseline), Mean (3-8): −29.2%
  Absolute sUA concentration, Mean (3-8): 4.1 mg/dL
[23]
  % sUA reduction (from baseline): −40.6% and −37.9% and −29.2% and −25.0% and −22.8%
  % sUA reduction (from baseline), Mean (3-8): −32.2%
  Absolute sUA concentration, Mean (3-8): 4.0 mg/dL
[24]
  % sUA reduction (from baseline), Mean (3-8): −17.2%
  Absolute sUA concentration, Mean (3-8): 4.9 mg/dL
[25]
  % sUA reduction (from baseline), Mean (3-8): −25.6%
  Absolute sUA concentration, Mean (3-8): 4.4 mg/dL
[26]
  % sUA reduction (from baseline), Mean (3-8): −29.1%
  Absolute sUA concentration, Mean (3-8): 4.2 mg/dL
[27]
  % sUA reduction (from baseline): −31.9% and −30.3% and −23.1% and −23.3% and −14.0% and −27.5%
  % sUA reduction (from baseline), Mean (3-8): −25.0%
